# From patent US20210380722A1, “COMPOSITIONS AND METHODS FOR THE TREATMENT OF MAJOR DEPRESSIVE DISORDER” (Snake River Bioscience, Inc., priority 2019, published 2021)
# Assays:
# [1] = test system: hippocampal neurons; details: cited from earlier work; for autophagy: Gulbins et al., Molecular Psychiatry (2018)
# [2] = test system: wildtype mice; assay: ceramide concentrations in exosomes from blood plasma of stressed mice (mass spectrometry, kinase assay); type: in vivo; details: corticosterone via drinking water 120 mg/L for 7 days; FIG. 1c
# Procedure: Corticosterone (Sigma, St. Louis, Mo.) was administered to mice via the drinking water at 120 mg/L for 7 days. In the chronic unpredictable stress model (CUS), the mice were challenged with unpredictable environmental stress for 8 days, i.e., a reversal of the light/dark cycle, 3 h of 45° tilting of the cage twice each week, shaking at 125 rpm, food deprivation for 14 h, predator sounds (15 min) or wet cages (1 h) with two forms of stress per day in a randomized (unpredictable) order. Blood was collected from the heart into heparin-coated needles and tubes immediately after sacrifice by cervical dislocation. Blood plasma was centrifuged at 3500 rpm for 5 min at 4° C. in an Eppendorf centrifuge. […]
# 10 μL of blood plasma or of resuspended exosomes (corresponding to 50 μL plasma) was added to 190 μL H2O and extracted in 600 μL CHCl3:CH3OH:1N HCl (100:100:1, v/v/v). […] Ceramide amounts were determined by comparison with a standard curve; C16 to C24 ceramides were used as substrates.
# Samples were subjected to lipid extraction with 1.5 mL methanol/chloroform (2:1, v:v). […] Dried residues were reconstituted in 200 μL of a 95:5 (v:v) mixture of high-performance liquid chromatography (HPLC) eluents B:A (see below), thoroughly vortexed for 10 min at 1,500 rpm, centrifuged at 2,200×g for 10 min at 4° C., and subjected to mass spectrometric sphingolipid quantification. […]
# [3] = test system: untreated mice; assay: high dose of corticosterone in untreated mice, symptoms of major depression after 24 h; type: in vivo; details: 1 mg/kg, data not shown
# Procedure: To exclude the possibility that investigators were measuring the effects of corticosterone that might have remained in the plasma of these mice, untreated mice were injected with a high dose of corticosterone (1 mg/kg) and the presence of biochemical and behavioral symptoms of major depression after 24 h were assessed.
# [4] = test system: sphingomyelin synthases; details: direct inhibition of sphingomyelin synthases; cited from earlier work
# [5] = test system: wildtype mice; assay: C16-ceramide loaded plasma or exosomes injected i.v. into wildtype mice; type: in vivo; details: plasma or exosomes of untreated mice loaded with 2 μM C16-ceramide, FIG. 4e
# Procedure: Plasma or exosomes were loaded with C16 ceramide or deuterated C16 ceramide (Avanti Polar Lipids, USA) by incubation of purified exosomes with 2 μM C16 ceramide or 2 deuterated C16 ceramide in 100 μL PBS for 60 min at 37° C. Plasma samples were directly injected i.v. into healthy mice. Exosomes were centrifuged again at 100,000×g for 70 min, the supernatant was discarded, resuspended in PBS and injected i.v. into healthy mice.
# For BrdU staining, mice were injected with BrdU 4 times, once every 2 h. Mice were sacrificed 24 h after the first injection and brains were prepared as above. […]
# Behavioral testing was performed between 3:00 p.m. and 6:00 p.m. under diffuse indirect room light. […] The time was recorded during which the mice explored a new environment before they began eating. […] The time that the mouse spent in each of the separate compartments was recorded. […] In the coat state test, the appearance of the coat (groomed vs unkempt coat) was scored on the head, neck, back, and ventrum with either a zero for normal status or a 1 for unkempt status. […] After 24 h the mice were again placed in a water-filled cylinder for 6 min, and the time of mobility or immobility during the last 4 min of the second trial was recorded. […]
smiles,measurement,setting,value
CNCCC(Oc1ccc(C(F)(F)F)cc1)c1ccccc1 (centres unmarked) [fluoxetine],autophagy,[1],induce autophagy in hippocampal neurons
CN(C)CCC=C1c2ccccc2CCc2ccccc21 [amitriptyline],autophagy,[1],induce autophagy in hippocampal neurons
"C[C@]12C[C@H](O)[C@H]3[C@@H](CCC4=CC(=O)CC[C@@]43C)[C@@H]1CC[C@@H]2C(=O)CO [glucocorticosterone, Corticosterone]",ceramide concentrations in exosomes in the blood plasma,[2],marked increase in ceramide concentrations
same,induction of MDD (biochemical and behavioral symptoms of major depression),[3],not sufficient to induce MDD
S=C(S)OC1CC2CC1C1CCCC21 (centres unmarked) [D609],stress-induced MDD,[4],rapid reversal of stress-induced MDD
same,autophagy,[1],activation of autophagy
same,ceramide in the endoplasmic reticulum (ER),[1]; direct inhibition of sphingomyelin synthases,rapid accumulation of ceramide in the ER
"CCCCCCCCCCCCC/C=C/[C@@H](O)[C@H](CO)NC(=O)CCCCCCCCCCCCCCC [C16-ceramide, C16 ceramide]",induction of MDD (behavioral changes and neuronal proliferation),[5],sufficient to induce MDD within 24 h
